# Patent US20250011311A1, “AMIDO HETEROAROMATIC COMPOUNDS” (AstraZeneca AB, priority 2022, published 2025)
# pIC50: −log10 of the molar value.
# How the values were obtained:
# CYP2C9 = CYP2C9 (Homo sapiens (Human), UniProt P11712); assay: Assay B: Cytochrome P450 Inhibition 2C9
# Description: A fluorescence-based method in 96-well format was used to determine the inhibition of 2C9 (Crespi, C. L. et al., Microtiter plate assays for inhibition of human, drug-metabolizing cytochromes P450. Anal Biochem 1997, 248 (1), 188-190. DOI: 10.1006/abio.1997.2145, which is incorporated herein by reference). The recombinant human enzymes used were prepared in house, except for CYP2D6 (CYPEX LTD, Dundee, UK). Different coumarin substrates, biotransformed into fluorescent metabolites, were used as probes for each individual CYP. A fluorescence plate reader (SPECTRAMAX GEMINIXS, MOLECULAR DEVICES, Sunnyvale, California, USA) was used to measure the levels of metabolites formed. A dilution series of the test substrates was prepared at eight different concentrations. For each CYP, a mixture of the enzyme, corresponding coumarin substrate, potassium phosphate buffer pH 7.4 and water (concentrations and volumes were CYP-dependent) were added to each well in a black 96-well plate. The test substrates at different concentrations were added. After 10 min pre-incubation, the co-factor NADPH was added to initiate the reaction. After 20-50 min (CYP and substrate-dependent) the reaction was terminated by addition of trisbase/MeCN (20:80). The plates were transferred to the fluorescence plate reader where the wavelengths were set individually for the different coumarin substrates and their respective fluorescent metabolite. The responses were exported to Excel where the IC50 curves were plotted (percent inhibition versus concentration) and IC50 values calculated for each test substrate and enzyme using XL-fit.
# [1] = target: over expressed HSD17β13 in HEK293S cells (Homo sapiens (Human), UniProt Q7Z5P4); assay: In Vitro 17bHSD13 Cell Assay; assay type: cell-based; conditions: HEK293S cells over expressing HSD17β13; estradiol to estrone conversion, 18 h, LC-MS/MS; read-out: 17bHSD1713 Cell assay IC50
# over expressed HSD17β13 in HEK293S cells, sequence (Q7Z5P4 20-300): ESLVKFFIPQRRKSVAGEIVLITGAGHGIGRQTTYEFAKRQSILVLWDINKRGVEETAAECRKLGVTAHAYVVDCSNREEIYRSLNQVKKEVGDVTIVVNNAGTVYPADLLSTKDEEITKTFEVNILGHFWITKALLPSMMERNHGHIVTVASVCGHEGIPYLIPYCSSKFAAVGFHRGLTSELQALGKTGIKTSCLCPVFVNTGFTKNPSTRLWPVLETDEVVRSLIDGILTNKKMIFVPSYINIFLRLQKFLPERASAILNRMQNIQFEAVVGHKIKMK
# Procedure, shortened: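 HEK293S cells overexpressing HSD17β13 convert estradiol to estrone; product read by LC-MS/MS (APCI, positive MRM) as AUC ratio estrone/(estrone+estradiol). Effect normalised between DMSO and maximal inhibition by a known inhibitor control; IC50 from curve fit.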
# [2] = target: over expressed HSD17β9 in HEK293S cells (Homo sapiens (Human), UniProt Q92781); assay: In Vitro 17bHSD9 Cell Assay; assay type: cell-based; conditions: HEK293S cells over expressing HSD17β9; retinol to retinal conversion, 18 h, LC-MS/MS; read-out: 17bHSD9 Cell assay IC50
# over expressed HSD17β9 in HEK293S cells, sequence (Q92781 whole entry): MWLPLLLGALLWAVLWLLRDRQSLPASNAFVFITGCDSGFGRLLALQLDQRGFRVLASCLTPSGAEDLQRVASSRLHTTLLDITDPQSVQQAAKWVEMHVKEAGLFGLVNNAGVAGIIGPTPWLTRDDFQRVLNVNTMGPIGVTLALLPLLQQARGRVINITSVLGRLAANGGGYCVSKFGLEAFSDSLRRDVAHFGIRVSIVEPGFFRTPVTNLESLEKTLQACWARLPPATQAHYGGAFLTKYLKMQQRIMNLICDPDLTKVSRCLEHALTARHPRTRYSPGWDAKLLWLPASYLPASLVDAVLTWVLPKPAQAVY
# Procedure, shortened: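 HEK293S cells overexpressing HSD17β9 were plated at 10K cells/well in DMEM + 10% FBS and cultured 18 h. Retinol-to-retinal conversion in media was quantified by LC-MS/MS (MRM) as retinal/(retinal + retinol). IC50 was fitted after normalisation to DMSO and full inhibition by a reference inhibitor.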
# human hepatocytes = assay: Assay A: Metabolic Stability in Human Hepatocytes; assay type: in vitro ADME; conditions: cryopreserved human hepatocytes, 10^6 viable cells/mL, 1 μM compound, 37° C.
# Description: Assay A: Metabolic Stability in Human Hepatocytes
# Hepatocyte metabolic stability was determined in accordance with the method described by Jacobson et al., An optimized automated assay for determination of metabolic stability using hepatocytes: assay validation, variance component analysis, and in vivo relevance. Assay Drug Dev Technol 2007, 5 (3), 403-415. DOI: 10.1089/adt.2007.059, which is incorporated herein by reference. Cryopreserved hepatocytes at a concentration of 10^6 viable cells/mL were used. After thawing, hepatocytes were incubated for 10 min to warm to 37° C. and test compounds, dissolved in acetonitrile, were added to give a final concentration of 1 μM. At 0.5, 5, 15, 30, 45, 60, 80, 100 and 120 min, the incubation system was mixed and 20 μL aliquots were transferred at each time point to wells in a separate plate filled with 80 μL MeCN to stop the reaction. The quenching plate was then vortexed followed by centrifugation, and supernatants were analyzed by LC-MS/MS. Peak areas were determined from extracted ion chromatograms, and the in vitro intrinsic clearance (in vitro CLint, in μL/min/10^6 cells) of parent compound was calculated from the slope in the regression analysis of the natural logarithm of parent concentration vs time curve.
# CYP2C9, sequence (P11712 whole entry): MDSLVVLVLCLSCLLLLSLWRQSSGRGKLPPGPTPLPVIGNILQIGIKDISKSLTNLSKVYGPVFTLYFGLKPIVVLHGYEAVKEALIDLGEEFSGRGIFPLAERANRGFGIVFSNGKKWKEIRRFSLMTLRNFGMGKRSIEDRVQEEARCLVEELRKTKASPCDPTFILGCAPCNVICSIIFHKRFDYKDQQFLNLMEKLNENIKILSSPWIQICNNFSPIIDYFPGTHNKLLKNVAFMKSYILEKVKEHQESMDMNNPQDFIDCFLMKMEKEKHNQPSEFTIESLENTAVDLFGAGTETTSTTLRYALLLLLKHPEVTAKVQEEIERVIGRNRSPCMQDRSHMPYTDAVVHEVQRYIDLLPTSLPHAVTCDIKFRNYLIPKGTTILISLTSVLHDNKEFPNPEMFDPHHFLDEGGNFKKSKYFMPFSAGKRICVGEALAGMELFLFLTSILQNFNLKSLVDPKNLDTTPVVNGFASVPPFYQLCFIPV
pIC50 (CYP2C9),pIC50 [1],pIC50 [2],Compound,Assay A: Human Heps Met Clint GMean CLint (μl/min/1E6) (human hepatocytes)
5.11,7.70,4.79,"CC[C@H]1CN(C(=O)c2noc(-c3cc(F)c(F)c(O)c3F)n2)C[C@@H](C)O1 (racemic) [Example 121, rac-((2R,6S)-2-Ethyl-6-methylmorpholino)(5-(2,4,5-trifluoro-3-hydroxyphenyl)-1,2,4-oxadiazol-3-yl)methanone]",6.8 μl/min/1E6
5.36,7.40,5.08,"CC(C)[C@H]1CN(C(=O)c2noc(-c3cc(F)c(F)c(O)c3F)n2)C[C@@H](C)O1 (racemic) [Example 122, rac-((2R,6S)-2-isopropyl-6-methylmorpholino)(5-(2,4,5-trifluoro-3-hydroxyphenyl)-1,2,4-oxadiazol-3-yl)methanone]",8.8 μl/min/1E6
5.74,5.79,< 4.30,"O=C(c1noc(-c2cc(F)c(F)c(O)c2F)n1)N1CC(Oc2ccccc2)C1 [Example 2, (3-Phenoxyazetidin-1-yl)(5-(2,4,5-trifluoro-3-hydroxyphenyl)-1,2,4-oxadiazol-3-yl)methanone]",14.7 μl/min/1E6
5.80,7.52,< 4.30,"C[C@@H]1CN(C(=O)c2ccc(-c3cc(F)c(F)c(O)c3F)s2)C[C@H](C)O1 [Example 3, ((2R,6S)-2,6-Dimethylmorpholino)(5-(2,4,5-trifluoro-3-hydroxyphenyl)thiophen-2-yl)methanone]",
6.22,7.10,4.89,"COc1ccccc1C1CCN(C(=O)c2noc(-c3cc(F)c(F)c(O)c3F)n2)C1 (stereo not shown) [Example 4, (3-(2-Methoxyphenyl)pyrrolidin-1-yl)(5-(2,4,5-trifluoro-3-hydroxyphenyl)-1,2,4-oxadiazol-3-yl)methanone]",47.4 μl/min/1E6
5.24,5.26,4.60,"O=C(c1noc(-c2cc(C(F)(F)F)[nH]c(=O)c2)n1)N1CCC(c2ccccc2)C1 (stereo not shown) [Example 9, 4-(3-(3-Phenylpyrrolidine-1-carbonyl)-1,2,4-oxadiazol-5-yl)-6-(trifluoromethyl)pyridin-2(1H)-one]",262.2 μl/min/1E6
4.89,6.10,< 4.30,"O=C(c1noc(-c2ccc(F)c(O)c2)n1)N1CC[C@H](c2ccccc2)C1 [Example 11, (R)-(5-(4-Fluoro-3-hydroxyphenyl)-1,2,4-oxadiazol-3-yl)(3-phenylpyrrolidin-1-yl)methanone]",>300 μl/min/1E6
5.96,6.59,< 4.30,"N#Cc1c(C(=O)N2CCN(CCCOc3ccc(F)cc3)CC2)noc1-c1cc(F)c(F)c(O)c1F [Example 14, 3-(4-(3-(4-Fluorophenoxy)propyl)piperazine-1-carbonyl)-5-(2,4,5-trifluoro-3-hydroxyphenyl)isoxazole-4-carbonitrile]",14.3 μl/min/1E6
6.10,5.34,< 4.30,"COc1cccc(N2CCN(C(=O)c3noc(-c4cc(F)c(F)c(O)c4F)c3C#N)CC2)c1 [Example 16, 3-(4-(3-Methoxyphenyl)piperazine-1-carbonyl)-5-(2,4,5-trifluoro-3-hydroxyphenyl)isoxazole-4-carbonitrile]",56.8 μl/min/1E6
6.40,6.10,5.21,"N#Cc1c(C(=O)N2Cc3ccc(F)cc3C2)noc1-c1cc(F)c(F)c(O)c1F [Example 18, 3-(5-Fluoroisoindoline-2-carbonyl)-5-(2,4,5-trifluoro-3-hydroxyphenyl)isoxazole-4-carbonitrile]",17.2 μl/min/1E6
5.92,5.95,< 4.30,"C[C@@H]1CN(C(=O)c2noc(-c3cc(F)c(F)c(O)c3F)c2C#N)C[C@H](C)O1 [Example 22, 3-((2R,6S)-2,6-Dimethylmorpholine-4-carbonyl)-5-(2,4,5-trifluoro-3-hydroxyphenyl)isoxazole-4-carbonitrile]",6.3 μl/min/1E6
6.70,6.36,4.79,"N#Cc1ccc2c(c1)CN(C(=O)c1noc(-c3cc(F)c(F)c(O)c3F)c1C#N)CC2 [Example 29, 3-(7-Cyano-1,2,3,4-tetrahydroisoquinoline-2-carbonyl)-5-(2,4,5-trifluoro-3-hydroxyphenyl)isoxazole-4-carbonitrile]",16.9 μl/min/1E6
5.41,5.60,4.80,"N#Cc1cccc2c1CCN(C(=O)c1noc(-c3c(F)c(O)c(F)c(F)c3Br)n1)C2 [Example 30, 2-(5-(2-Bromo-3,4,6-trifluoro-5-hydroxyphenyl)-1,2,4-oxadiazole-3-carbonyl)-1,2,3,4-tetrahydroisoquinoline-5-carbonitrile]",15.6 μl/min/1E6
5.30,5.97,4.52,"N#Cc1ccc2c(c1)CCN(C(=O)c1noc(-c3cc(F)c(F)c(O)c3F)n1)C2 [Example 31, 2-(5-(2,4,5-Trifluoro-3-hydroxyphenyl)-1,2,4-oxadiazole-3-carbonyl)-1,2,3,4-tetrahydroisoquinoline-6-carbonitrile]",12.6 μl/min/1E6
5.08,6.52,4.80,"CC1(C)CN(C(=O)c2noc(-c3cc(F)c(F)c(O)c3F)n2)CC(C)(C)O1 [Example 32, (2,2,6,6-Tetramethylmorpholino)(5-(2,4,5-trifluoro-3-hydroxyphenyl)-1,2,4-oxadiazol-3-yl)methanone]",4.1 μl/min/1E6
6.70,5.92,< 4.30,"O=C(c1ccc(-c2cc(F)c(F)c(O)c2F)s1)N1CC[C@H](c2ccccc2)C1 [Example 33, (R)-(3-Phenylpyrrolidin-1-yl)(5-(2,4,5-trifluoro-3-hydroxyphenyl)thiophen-2-yl)methanone]",124.3 μl/min/1E6
5.11,7.52,5.00,"C[C@@H]1C[C@H](C)CN(C(=O)c2noc(-c3cc(F)c(F)c(O)c3F)n2)C1 [Example 37, ((3R,5S)-3,5-Dimethylpiperidin-1-yl)(5-(2,4,5-trifluoro-3-hydroxyphenyl)-1,2,4-oxadiazol-3-yl)methanone]",6.7 μl/min/1E6
4.83,6.57,5.06,"C[C@@H]1CC[C@H](C)N1C(=O)c1noc(-c2cc(F)c(F)c(O)c2F)n1 [Example 38, ((2R,5S)-2,5-Dimethylpyrrolidin-1-yl)(5-(2,4,5-trifluoro-3-hydroxyphenyl)-1,2,4-oxadiazol-3-yl)methanone]",2.1 μl/min/1E6
4.81,7.05,4.30,"O=C(c1noc(-c2cc(F)c(F)c(O)c2F)n1)N1CCOC2CCCC21 (stereo not shown) [Example 41, (Hexahydrocyclopenta[b][1,4]oxazin-4(4aH)-yl)(5-(2,4,5-trifluoro-3-hydroxyphenyl)-1,2,4-oxadiazol-3-yl)methanone]",5.9 μl/min/1E6
5.31,7.00,< 4.30,"C[C@@H]1C[C@H](C)CN(C(=O)c2nc(-c3cc(F)c(F)c(O)c3F)no2)C1 [Example 111, ((3R,5S)-3,5-Dimethylpiperidin-1-yl)(3-(2,4,5-trifluoro-3-hydroxyphenyl)-1,2,4-oxadiazol-5-yl)methanone]",

Compound,pIC50 (CYP2C9),pIC50 [1],pIC50 [2],Assay A: Human Heps Met Clint GMean CLint (μl/min/1E6) (human hepatocytes)
"CC1CN(C(=O)c2noc(-c3cc(F)c(F)c(O)c3F)n2)CC2(CCC2)O1 (racemic) [Example 123, (6-Methyl-5-oxa-8-azaspiro[3.5]nonan-8-yl)(5-(2,4,5-trifluoro-3-hydroxyphenyl)-1,2,4-oxadiazol-3-yl)methanone]",5.03,7.10,4.52,8.3 μl/min/1E6
